Where two headings read alike, the source gives them in different places. Bounds are passed on as bounds.

By EC50 is commonly meant the midpoint of the concentration-response curve.

For this test, the system named is KARN cells (Jurkat 2C4). Description: KARN assay (luciferase induction). It counts as cell-based. Conditions: ~20 hr, 100% induction = 2 μM SAHA. The protocol:
KARN cells (Jurkat 2C4) were licensed from the laboratory of Dr. John Kam, Case Western Reserve University, School of Medicine. […] An atmosphere of 5% CO2 and 90% humidity was used for all culture work. Cells were split and reseeded into T175 flasks at a density of 0.2×10^6 cells/ml, in 40 ml of media, every 3-4 days.
Day 1: After the 3-4 day growth period, the cells were transferred from the T175 flask to a 50 ml conical tube and gently pelleted at 1000 rpm for 5 minutes. […] These flasks were returned to the incubator.
Day 2: Cell Preparation: The next day, the cells were transferred from each T175 flask to an individual 50 ml conical tube and gently pelleted at 1000 rpm for 5 minutes. The cells were gently resuspended in assay media (30 ml) and pelleted again. […] The cells were counted using the ViCell (Beckman Coulter, Brea, Calif.) and diluted as necessary. A Multidrop (Combi, Thermo Scientific, Waltham, Mass.) with a sterile head was used to seed the cells into the wells of a 384-well solid black plate with lid (Perkin Elmer, Waltham, Mass., catalog number 6007660) at 4000 cells/30 μl/well for the 5% NHS assay media and 6000 cells/30 μl/well for 0.1% NHS assay. The plates were covered and returned to the incubator prior to compound addition.
Compound Preparation: Solutions of control inhibitor suberoylanilide hydroxamic acid (SAHA; Sigma, catalog number SML0061) and test compounds in 100% DMSO were titrated into 384-well polypropylene plates (Labcyte, San Jose, Calif., catalog number P-05525) using a 20-point dose response and 2-fold dilutions. The reference compounds, DMSO and SAHA were then added to the compound plate. Using the Access system (Labcyte), 120 nl of these inhibitor and control solutions were added to the individual wells of the plates containing the cells, and the plates were then returned to the incubator for ˜20 hr (range from 18-24 hr). The final high concentration for SAHA and the test compounds in the assays was 40 μM. The final DMSO concentration in all wells was 0.4%. The minimal induction reference compound used was DMSO and the maximal induction reference compound used was SAHA (2 μM final concentration in the assay).
Day 3: The luciferase detection reagent was prepared by transferring the contents of one bottle of Steady-Glo buffer to one bottle of Steady-Glo substrate (Steady-Glo Luciferase Assay System, Promega, Madison, […]., catalog number E2520), followed by gently mixing until the substrate was thoroughly dissolved and the solution was equilibrated to room temperature. The cell culture assay plates were removed from the incubator and brought to room temperature (15 min). The Steady-Glo Reagent was added to the plates (30 μl/well), which were then covered with a black lid and incubated for 10 minutes at room temperature. The plates were then read for luminescence on an Envision (Perkin Elmer) using the ultrasensitive mode (US LUM), […] and 384-well aperture. Luminescence counts in the DMSO reference wells were considered as 0% induction, while those in the 2 μM SAHA reference wells were considered as 100% induction. Dose response curves were plotted as test compound concentration (X-axis) vs. percent activation (Y-axis) using a 4-parameter fit based on the Levenberg-Marquardt algorithm.

The mark [1] stands for this setting: Jurkat, read-out: Karn EC50 with 0.1% NHS, 0.1% normal human serum.
[2] abbreviates: Jurkat, read-out: Karn EC50 with 5% NHS, 5% normal human serum.
Where [3] appears, read: read-out: Karn EC50 with 0.1% NHS, 0.1% normal human serum.
[4] abbreviates: read-out: Karn EC50 with 5% NHS, 5% normal human serum.

In the case of `CCC(=O)CCCCC[C@@H]1NC(=O)[C@H]2CC23CCN(CCCCCCCCn2ccc4cc(c(OC)cc4c2=O)-c2cnc1[nH]2)CC3` [Compound 5, (1^1S,4S)-6^7-methoxy-4-(6-oxooctyl)-6^1,6^2-dihydro-5^1H-3-aza-6(6,2)-isoquinolina-15(4,1)-piperidina-5(2,5)-imidazola-1(1,2)-cyclopropanapentadecaphane-6^1,2-dione], the EC50 runs as follows: under setting [1], 0.011 µM; under setting [2], 0.012 µM.

In the case of `CCC(=O)CCCCC[C@@H]1NC(=O)[C@H]2CC23CCN(CCCOCCCn2ccc4cc(ccc4c2=O)-c2cnc1[nH]2)CC3` [Compound 12, (3S,6S)-6-(6-oxooctyl)-22-oxa-5,8,18,26,33-pentaazahexacyclo[24.2.2.1˜7,10˜0.1˜11,15˜0.1˜14,18˜0.0˜1,3˜]tritriaconta-7,9,11(32),12,14,16-hexaene-4,31-dione], the EC50 under setting [1] stood at 1.79 µM and the EC50 under setting [2] was 1.99 µM.

As to `CCC(=O)CCCCC[C@H](NC(=O)[C@H]1CC12CCN(CC)CC2)c1[nH]c2nc1C(=O)NCCC/C=C/c1cccc-2c1` [Compound 15, (1S)-6-ethyl-N-{(1S)-7-oxo-1-[(11E)-6-oxo-3,7,18-triazatricyclo[11.3.1.1~2,5~]octadeca-1(17),2(18),4,11,13,15-hexaen-4-yl]nonyl}-6-azaspiro[2.5]octane-1-carboxamide], the EC50 runs as follows: under setting [1], 5.24 µM; under setting [2], 19.3 µM.

For “(11S,4S)-4-(6-oxooctyl)-61,62-dihydro-3-aza-5(2,5)-oxazola-6(6,1)-quinolina-12(4,1)-piperidina-1(1,2)-cyclopropanadodecaphane-62,2-dione [Compound 8]”, the EC50 was more than 40 µM under setting [3] and more than 40 µM under setting [4].

For the molecule `CCC(=O)CCCCCC1NC(=O)C2CC2N2CCC(CCCCCn3c(=O)ccc4cc(ccc43)-c3cnc1o3)CC2` [Compound 7, (11S,4S)-4-(6-oxooctyl)-61,62-dihydro-3-aza-5(2,5)-oxazola-6(6,1)-quinolina-12(4,1)-piperidina-1(1,2)-cyclopropanadodecaphane-62,2-dione], the EC50 under setting [3] is 5.15 µM and the half-maximal effective concentration (EC50) under setting [4] amounted to 4.73 µM.

These data come from patent US11976069B2, “Inhibitors of histone deacetylase useful for the treatment or prevention of HIV infection” (Merck Sharp & Dohme LLC, priority 2019, dated 2024).
